This is an account of results in ChEMBL document CHEMBL2034873, “Discovery of a Novel Series of CHK1 Kinase Inhibitors with a Distinctive Hinge Binding Mode” (ACS Med Chem Lett, 2012).

The term IC50 denotes the concentration at which inhibition is half-maximal. By EC50 is commonly meant the concentration giving half of the maximal effect. The Kd is the constant that tells how readily two partners part at equilibrium. The low end stands for tighter binding, the high end for weaker binding.

A short description of experiment [1]: Selectivity ratio of IC50 for cyclinE/CDK2 to IC50 for CHK1.
The target of experiment [2] is T1, Serine/threonine-protein kinase Chk1 (Homo sapiens, UniProt O14757).
T1 sequence (O14757 whole entry): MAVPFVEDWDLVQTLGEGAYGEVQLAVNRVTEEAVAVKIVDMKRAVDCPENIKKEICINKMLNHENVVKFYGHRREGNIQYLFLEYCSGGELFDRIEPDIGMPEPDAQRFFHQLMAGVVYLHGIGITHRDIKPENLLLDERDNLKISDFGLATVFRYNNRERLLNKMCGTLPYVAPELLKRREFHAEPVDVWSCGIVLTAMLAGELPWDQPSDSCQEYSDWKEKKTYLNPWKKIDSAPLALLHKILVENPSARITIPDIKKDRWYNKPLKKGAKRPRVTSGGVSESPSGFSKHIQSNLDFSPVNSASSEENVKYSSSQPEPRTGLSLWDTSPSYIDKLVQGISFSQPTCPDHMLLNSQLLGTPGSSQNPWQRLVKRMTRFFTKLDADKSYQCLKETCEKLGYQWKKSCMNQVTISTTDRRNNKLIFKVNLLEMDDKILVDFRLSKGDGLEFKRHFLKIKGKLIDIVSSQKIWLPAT
The experiment is described as follows: Inhibition of recombinant His-tagged CHK1 using biotin-RSGLYRSPSMPENLNRPR as substrate after 1 hr by scintillation proximity assay. (In general: Scintillation proximity formats need no separation of bound from free tracer.)

In experiment [3] the target is T1, Serine/threonine-protein kinase Chk1. Kind of experiment: Inhibition of CHK1 in human U2OS cells pretreated with hydroxyurea assessed as gamma-H2AX level after 2 hrs by immunofluorescence assay. The class given is cell-based.
For experiment [4] the target is unchanged. The experiment is described as follows: Binding affinity to CHK1 by affinity-selection-mass […] assay.
Experiment [5] has as its target Cyclin-dependent kinase 2/cyclin E1 (Homo sapiens, UniProt P24941). The experiment is described as follows: Inhibition of Cyclin E/CDK2 expressed in Sf9 cells using [33gamma]ATP after 1 hr by liquid scintillation counter.

On to `O=C(Nc1ccccc1C1=CCNCC1)c1csc(-c2ccc3c(c2)CCO3)n1`, for which the Ratio IC50 in experiment [1] turned out to be 1.7. Also, the IC50 in experiment [2] came out at 760 nM.

As for `CC(=O)N1CCN(c2ccccc2NC(=O)c2csc(-c3ccc4c(c3)CCO4)n2)CC1`, in experiment [1], the Ratio IC50 came to 0.34. Further, the 50% inhibitory concentration (IC50) in experiment [2] was 4100 nM.

As to `CC1CNCCN1c1ccccc1NC(=O)c1csc(-c2ccc3c(c2)CCO3)n1` (stereo unspecified), the half-inhibitory concentration (IC50) in experiment [2] worked out at 280 nM.

As for `C[C@@H]1CN(c2ccccc2NC(=O)c2csc(-c3ccc4c(c3)CCO4)n2)CCN1`, in experiment [1], the Ratio IC50 is 2. The 50% inhibitory concentration (IC50) in experiment [2] was 120 nM.

As for `O=C(Nc1ccccc1N1CCNCC1)c1csc(-c2ccc3c(c2)OCO3)n1`, the Ratio IC50 in experiment [1] stood at 18. Also, the IC50 in experiment [2] was determined as 170 nM.

In the case of `COc1ccc(-c2nc(C(=O)Nc3ccccc3N3CCNCC3)cs2)cc1`, the Ratio IC50 in experiment [1] stood at 5. For the same compound, the half-maximal inhibitory concentration (IC50) in experiment [2] worked out at 72 nM.

`O=C(Nc1ccccc1N1CCNCC1)c1cc(-c2ccc3c(c2)OCO3)on1`: in experiment [2], the half-inhibitory concentration (IC50) turned out to be 3400 nM.

`CN(C)Cc1ccc(-c2nc(C(=O)Nc3ccccc3N3CCNCC3)cs2)cc1`: the 50% inhibitory concentration (IC50) in experiment [2] is above 50000 nM.

Turning to `Cc1nc(-c2ccc3c(c2)CCO3)sc1C(=O)Nc1ccccc1N1CCNCC1`, the IC50 in experiment [2] turned out to be 21000 nM.

`O=C(Nc1ccccc1N1CCNCC1)c1csc(-c2cn[nH]c2)n1`: the Ratio IC50 in experiment [1] was found to be 0.67. Further, the IC50 in experiment [2] was found to be 190 nM.

For `O=C(Nc1ccccc1N1CCNCC1)c1csc(-c2cc[nH]n2)n1`, the Ratio IC50 in experiment [1] is 33. Further, the IC50 in experiment [2] turned out to be 110 nM.

In the case of `O=C(Nc1ccccc1C1CCNCC1)c1csc(-c2ccc3c(c2)CCO3)n1`, the Ratio IC50 in experiment [1] was found to be 1.8. In experiment [2], the concentration for half-maximal inhibition (IC50) turned out to be 4500 nM.

Take `CN1CCN(c2ccccc2NC(=O)c2csc(-c3ccc4c(c3)CCO4)n2)CC1`: the Ratio IC50 in experiment [1] turned out to be 0.16. Also, in experiment [2], the IC50 was 2000 nM.

With `COc1ccc(-c2nc(C(=O)Nc3ccccc3N3CCNCC3)cs2)cc1OC`, the Ratio IC50 in experiment [1] worked out at 6.6. For the same compound, in experiment [2], the IC50 was found to be 520 nM.

As to `O=C(Nc1ccccc1N1CCNCC1)c1csc(-c2ccc(-c3cccs3)s2)n1`, the IC50 in experiment [2] is 130 nM.

Take `O=C(Nc1ccccc1N1CCOCC1)c1csc(-c2ccc3c(c2)CCO3)n1`: in experiment [2], the IC50 was above 50000 nM.

Take `O=C(Nc1ccccc1N1CCNCC1)c1csc(-c2ccc3c(c2)OCCCO3)n1`: in experiment [2], the concentration for half-maximal inhibition (IC50) came to 190 nM.

For the compound `O=C(Nc1ccccc1N1CCNCC1)c1csc(-c2cc[nH]c2)n1`, the half-inhibitory concentration (IC50) in experiment [2] stood at 100 nM.

Consider `O=C(Nc1ccccc1N1CCNCC1)c1csc(C#Cc2ccccc2)n1`, for which the Ratio IC50 in experiment [1] turned out to be 32. The IC50 in experiment [2] came out at 440 nM.

As to `O=C(Nc1ccccc1N1CCNCC1)c1csc(-c2ccc3[nH]ccc3c2)n1`, the Ratio IC50 in experiment [1] worked out at 960. In addition, in experiment [2], the IC50 stood at 4 nM. In addition, the EC50 in experiment [3] turned out to be 3500 nM.

Take `O=C(Nc1ccccc1N1CCNCC1)c1csc(-c2ccc3sccc3c2)n1`: in experiment [1], the Ratio IC50 stood at 380. Besides, the 50% inhibitory concentration (IC50) in experiment [2] was found to be 5 nM. The concentration for a half-maximal effect (EC50) in experiment [3] turned out to be 2500 nM.

`O=C(Nc1ccccc1N1CCNCC1)c1csc(-c2ccc3c(c2)CCO3)n1`: in experiment [4], the Kd is below 100 nM. Further, the Ratio IC50 in experiment [1] turned out to be 2.7. In addition, the figures for the IC50 in experiment [2] and in experiment [5] were 75 nM and 210 nM, respectively. In addition, the EC50 in experiment [3] worked out at 10000 nM.

Take `CN(C)c1ccc(-c2nc(C(=O)Nc3ccccc3N3CCNCC3)cs2)cc1`: the Ratio IC50 in experiment [1] was 73. In addition, the IC50 in experiment [2] was 19 nM.

As to `O=C(Nc1ccccc1N1CCNCC1)c1csc(-c2csc3ccccc23)n1`, the Ratio IC50 in experiment [1] came to 6. In experiment [2], the IC50 came out at 69 nM.

As to `O=C(Nc1ccccc1N1CCNCC1)c1csc(-c2ccc(Oc3ccccc3)cc2)n1`, the Ratio IC50 in experiment [1] was found to be 3600. In addition, the IC50 in experiment [2] is 5 nM. Moreover, the EC50 in experiment [3] is above 50000 nM.

On to `O=C(Nc1ccccc1N1CCNCC1)c1csc(-c2cc3ccccc3s2)n1`, for which the Ratio IC50 in experiment [1] was 33. For the same compound, the half-maximal inhibitory concentration (IC50) in experiment [2] is 7 nM. In addition, the EC50 in experiment [3] amounted to 1500 nM.

Turning to `O=C(Nc1ccccc1N1CCNCC1)c1csc(-c2ccncc2)n1`, the Ratio IC50 in experiment [1] was 0.54. Besides, in experiment [2], the half-inhibitory concentration (IC50) turned out to be 1500 nM.

For `O=C(Nc1ccccc1N1CCNCC1)c1csc(-c2ccc3occc3c2)n1`, the Ratio IC50 in experiment [1] is 27. Also, in experiment [2], the IC50 came out at 19 nM. Also, in experiment [3], the EC50 turned out to be 2000 nM.

As to `O=C1CN(c2ccccc2NC(=O)c2csc(-c3ccc4c(c3)CCO4)n2)CCN1`, in experiment [2], the IC50 was above 50000 nM.

Take `O=C(Nc1ccccc1N1CCNCC1)c1csc(-c2cccs2)n1`: the Ratio IC50 in experiment [1] came out at 16. Besides, in experiment [2], the IC50 was 36 nM.

As to `CC#Cc1nc(C(=O)Nc2ccccc2N2CCNCC2)cs1`, in experiment [2], the half-inhibitory concentration (IC50) amounted to 3900 nM.

Consider `C[C@H]1CN(c2ccccc2NC(=O)c2csc(-c3ccc4c(c3)CCO4)n2)CCN1`, for which the Ratio IC50 in experiment [1] was determined as 3. For the same compound, the IC50 in experiment [2] amounted to 86 nM.

As for `N#Cc1ccc(-c2nc(C(=O)Nc3ccccc3N3CCNCC3)cs2)cn1`, in experiment [2], the IC50 was determined as 5200 nM.

Regarding `O=C(Nc1ccccc1N1CCNCC1=O)c1csc(-c2ccc3c(c2)CCO3)n1`, in experiment [2], the IC50 is above 50000 nM.

For `O=C(Nc1ccccc1N1CCNCC1)c1csc(-c2cncnc2)n1`, in experiment [2], the 50% inhibitory concentration (IC50) stood at 13000 nM.

`COc1ccc(-c2nc(C(=O)Nc3ccccc3N3CCNCC3)cs2)cc1C`: the Ratio IC50 in experiment [1] is 12. The concentration for half-maximal inhibition (IC50) in experiment [2] was determined as 580 nM.

`O=C(Nc1ccccc1N1CCNCC1)c1csc(-c2cccnc2)n1`: the Ratio IC50 in experiment [1] was 0.8. The half-maximal inhibitory concentration (IC50) in experiment [2] was 1400 nM.

As to `O=C(Nc1ccccc1N1CCNCC1)c1csc(-c2ccccc2)n1`, in experiment [1], the Ratio IC50 amounted to 12. The 50% inhibitory concentration (IC50) in experiment [2] was 87 nM.

`O=C(Nc1ccccc1N1CCNCC1)c1csc(-c2ccsc2)n1`: in experiment [1], the Ratio IC50 is 5. In addition, the half-maximal inhibitory concentration (IC50) in experiment [2] turned out to be 210 nM.

As to `O=C(Nc1ccccc1N1CCNCC1)c1csc(-c2ccc(-c3ccccc3)s2)n1`, the IC50 in experiment [2] was determined as 89 nM.

`O=C(Nc1ccccc1N1CCNCC1)c1nc(-c2ccc3c(c2)CCO3)cs1`: the IC50 in experiment [2] was above 50000 nM.

Take `O=C(Nc1ccccc1N1CCNCC1)c1csc(-c2ccc[nH]2)n1`: in experiment [2], the IC50 was 1200 nM.
